Assay results taken from US5118670A, “Process and composition for increasing brain dopamine release” (Massachusetts Institute of Technology, priority 1988, dated 1992).

Test system: striatal dopamine release
Experiment: Effect of TRH and tyrosine on striatal dopamine release (in vivo microdialysis)
Design: species or system rats
Excerpt: Groups of 7 male albino rats were implanted with a jugular venous catheter (for administering the drugs and withdrawing blood samples), and a microdialysis probe into the corpus striatum (for sampling fluid in equilibrium with intrasynaptic fluids).
Animals were placed under deep urethane anesthesia for the duration of the experiment. Each animal received 10 micrograms of TRH or a saline placebo, and/or tyrosine at a dose of 20 micrograms per kilogram, or a saline placebo.
Microdialysis samples (23 microliters of artificial cerebrospinal fluid per sample) were then collected at 15 minute intervals for 150 minutes, and rapidly assayed for dopamine, its chief metabolites (DOPAC and HVA), serotonin, and the serotonin metabolite, 5-HIAA.

With `NC(=O)[C@@H]1CCCN1C(=O)[C@H](Cc1c[nH]cn1)NC(=O)[C@@H]1CCC(=O)N1` [TRH, L-pyroglutamyl-L-histidyl-L-prolineamide] the “other compounds measured in microdialysate (DOPAC, HVA, serotonin, 5-HIAA)” value (TRH 10 micrograms alone, anesthetized rats, striatal microdialysis) was “stable”, the “increase (from the baseline) in dopamine release” value (TRH 10 micrograms alone, via jugular venous catheter, urethane-anesthetized male albino rats, corpus striatum microdialysis, after two hours) was 190% and the “effect on dopamine release” value (higher dose of TRH (50 micrograms) without tyrosine, anesthetized rats, striatal microdialysis) was 750%.

For `N[C@@H](Cc1ccc(O)cc1)C(=O)O` [tyrosine], the “increase in dopamine release” value (tyrosine alone, 20 micrograms per kilogram, via jugular venous catheter, anesthetized rats, striatal microdialysis, after two hours) was “about 110%”.
